Assay results reported in ChEMBL document CHEMBL1250423, “Terpioside B, a difucosyl GSL from the marine sponge Terpios sp. is a potent inhibitor of NO release” (Bioorg Med Chem, 2010).
The source made the active and inactive calls. No cut-off for these calls is given here.

Molecular target: T1, Nitric oxide synthase, inducible (Mus musculus) (UniProt P29477)
T1 sequence (whole entry): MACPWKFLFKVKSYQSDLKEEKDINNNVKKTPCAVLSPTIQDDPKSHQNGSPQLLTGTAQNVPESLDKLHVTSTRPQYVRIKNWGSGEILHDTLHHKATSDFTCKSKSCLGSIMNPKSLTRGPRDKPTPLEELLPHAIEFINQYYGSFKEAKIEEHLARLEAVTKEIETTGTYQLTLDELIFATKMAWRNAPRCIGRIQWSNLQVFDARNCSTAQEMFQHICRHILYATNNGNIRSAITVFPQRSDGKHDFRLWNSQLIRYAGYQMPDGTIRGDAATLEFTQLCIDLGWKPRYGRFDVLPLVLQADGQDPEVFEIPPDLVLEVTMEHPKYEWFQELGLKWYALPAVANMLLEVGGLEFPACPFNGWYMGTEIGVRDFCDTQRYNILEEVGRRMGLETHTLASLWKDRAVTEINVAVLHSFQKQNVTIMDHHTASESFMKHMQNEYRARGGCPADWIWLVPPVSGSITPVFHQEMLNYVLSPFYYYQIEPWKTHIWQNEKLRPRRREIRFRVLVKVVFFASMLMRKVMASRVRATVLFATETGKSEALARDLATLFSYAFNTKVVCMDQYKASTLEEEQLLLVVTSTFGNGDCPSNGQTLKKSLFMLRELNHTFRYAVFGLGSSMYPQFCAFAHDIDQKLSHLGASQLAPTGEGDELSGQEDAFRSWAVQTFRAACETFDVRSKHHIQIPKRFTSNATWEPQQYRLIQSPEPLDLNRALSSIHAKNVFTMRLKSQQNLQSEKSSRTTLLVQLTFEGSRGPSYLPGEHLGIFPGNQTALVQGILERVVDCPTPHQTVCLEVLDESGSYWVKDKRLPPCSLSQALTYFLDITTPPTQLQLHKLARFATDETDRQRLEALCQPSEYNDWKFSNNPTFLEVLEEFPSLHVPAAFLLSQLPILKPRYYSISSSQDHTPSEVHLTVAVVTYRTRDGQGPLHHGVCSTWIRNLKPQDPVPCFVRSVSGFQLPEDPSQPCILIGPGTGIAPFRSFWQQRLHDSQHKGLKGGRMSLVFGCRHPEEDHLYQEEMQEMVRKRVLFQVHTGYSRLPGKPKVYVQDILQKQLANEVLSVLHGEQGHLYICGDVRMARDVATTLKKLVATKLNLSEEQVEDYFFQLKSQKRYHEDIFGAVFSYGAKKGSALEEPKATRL
Assay: Inhibition of iNOS in mouse J774.2 cells assessed as reduction of LPS-induced nitric oxide production at 1 to 10 uM after 24 hrs by Griess reaction
Format: cell-based

inhibition: Active
Structure (SMILES): CCCCCCCCCCCCCCCCCCCCCC[C@@H](O)C(=O)N[C@@H](CO[C@@H]1O[C@H](CO)[C@@H](O)[C@H](O[C@@H]2O[C@H]([C@H](C)O)[C@@H](O)[C@@H]2O)[C@H]1O)[C@H](O)[C@H](O)CCCCCCCCCCCC(C)CC (stereo partly specified)
